The values that follow come from patent US8679499B2, “Methods for relieving asthma-associated airway hyperresponsiveness” (The Board of Trustees of the Leland Stanford Junior …, priority 2004, dated 2014).

“Also recorded” adds a separate entry of the source.

The subject of data set [1] is NKT cells. Briefly: Serum IgE and IgG2c before and 10 days after a single i.p. glycolipid injection. Format: in vivo, C57BL/6 mice. How it is done:
In a separate experiment, mean serum IgE levels of groups of three C57BL/6 mice were measured before or 10 days after a single i.p. injection of 0.1 μg α Galcer alone, 100 μg β Galcer alone, or 100 μg of β Galcer injected 1 hour before 0.1 μg α Galcer. […] The bars show means of triplicate determinations, and the brackets show standard deviations. […] We conclude that β Galcer blocks the increase in serum IgE levels induced by α Galcer. No significant change is seen with the control IgG2c expression.

The subject of data set [2] is NKT cells. Briefly: Serum IFN-γ and IL-4 (ELISA) after i.p. glycolipid injection; NKT cell activation in vivo. On the set-up: species or system C57BL/6 mice. As to conditions: 6 hours. How it is done: The i.p. injection of a galactosyl ceramide (obtained from Brigham Young University, Provo, Utah) into C57BL/6 mice increases serum levels of IL-4 and IFN-γ by selectively activating NKT cells. Injection of C12 β galactosyl ceramide (Avanti Lipids, Inc.) i.p. antagonizes the ability of α galactosyl ceramide to raise the levels of IL-4, interferon-gamma, and IgE in the serum of these mice.
Male C57BL/6 mice of about 8 weeks of age were given either 100 μg of β galactosyl ceramide (β Galcer) i.p., 0.1 μg of α galactosyl ceramide (α Galcer) i.p., 100 μg β Galcer i.p. either 1 hour before or at the same time as 0.1 μg α Galcer i.p., or no treatment. β-Galcer was obtained from Avanti Lipids Inc. Glycolipids were in aqueous solutions with PBS. Cytokine levels were determined by ELISA as previously described by Zeng et al. (2003), supra.
(In an ELISA, binding on a coated surface is turned into a signal by an enzyme label.)

A further data set relates to NZBxNZW mouse. The experiment in a line: Murine model for systemic lupus erythematosus, proteinuria. The data set is classed as in vivo. As to conditions: high dose (100 μg/mouse) injected twice weekly, at 38 weeks; PBS control approximately 30%. How it is done:
In a murine model for systemic lupus erythematosus, the NZBxNZW mouse, animals were injected twice weekly with one of: PBS, 50 μg/mouse β-galactosyl ceramide, or 100 μg/mouse β-galactosyl ceramide. The animals were analyzed for proteinuria, which is an indication of the development of lupus. In the control group of 15 mice, at 38 weeks, approximately 30% of the mice were without proteinuria, while approximately 80% of the mice treated with the high dose of β-galactosyl ceramide were without proteinuria.

Data set [3] has as its system mice with α-GalCer induced airway hyperresponsiveness (AHR). The experiment in a line: α-GalCer induced airway hyperresponsiveness (AHR), methacholine whole body plethysmograph. The data set is classed as in vivo, BALB/c mice. The protocol: (§1) In murine model of asthma, β-GalCer was administered to OVA-immunized BALB/c mice, or mice with α-GalCer induced airway hyperresponsiveness (AHR).
(§2) Immunizations. BALB/c mice were primed in the footpads with OVA (100 μg/mouse) adsorbed to 200 μg of alum (Al[OH]3). Mice were challenged with 50 μg OVA in 50 μl NaCl 0.9% intranasally 7, 8, and 9 days later. One day after the last intranasal challenge with OVA, airway hyperreactivity was measured from conscious mice after inhalation of increasing concentrations of methacholine in a whole body plethysmograph Immunization with α-GalCer was performed as described.
(§3) Measurement of Airway Responsiveness. Airway responsiveness was assessed by methacholine-induced airflow obstruction from conscious mice placed in a whole body plethysmograph (model PLY 3211, Buxco Electronics Inc., Troy, N.Y.). Pulmonary airflow obstruction was measured by Penh using the following formula:
(§4) [formula] where Penh=enhanced pause (dimensionless), Te=expiratory time, RT=relaxation time, PEF=peak expiratory flow (mI/s), and PIF=peak inspiratory flow (mI/s) (Hamelmann et al. (1997) Am. J. Respir. Crit. Care Med. 156:766-75. Enhanced pause (Penh), minute volume, tidal volume, and breathing frequency were obtained from chamber, pressure, measured with a transducer (model TRD5100) connected to preamplifier modules (model MAX2270) and analyzed by system XA software (model SFT 1810). Measurements of methacholine responsiveness were obtained by exposing mice for 2 min to NaCI 0.9%
(§5) Collection of BAL Fluid and Lung Histology. Animals were injected i.p. with a lethal dose of phenobarbital (450 mg/kg). The trachea was cannulated, and the lung was then lavaged with 0.8 ml of PBS three times, and the fluid pooled. Cells in the lavage fluid were counted using a hemocytometer and BAL cell differentials were determined on slide preparations stained with Hansel Stain (Lide Laboratories, Florissant, Mo.). At least 200 cells were differentiated by light microscopy based on conventional morphologic criteria. In some animals, no BAL was performed but lungs were removed, washed with PBS, fixed in 10% formalin and stained with hematoxylin and eosin.
A minimum of 4 mice per group were used.

Data set [4] deals with NKT cells. Briefly: Oral administration of β-galactosyl ceramide: serum cytokines and liver NKT cell markers. The data set is classed as in vivo, mouse. How it is done:
Doses of β-galactosyl ceramide ranging from 100-800 μg/mouse were administered orally. Cytokine levels of IFN-γ and IL-4 were determined by ELISA as previously described by Zeng et al. (2003), supra. from serum levels.

Data set [5] concerns OVA-immunized BALB/c mice. The experiment in a line: OVA/alum induced AHR, murine model of asthma. Format: in vivo. The protocol:
as §1, §2
Cytokine ELISA. ELISAS were performed as previously described Macaulay et al. (1998) J. Immunol. 160:1694-1700. The antibody pairs used were as follows, listed by capture/biotinylated detection: IL-4, BVD4-1D11/BVD6-24G2; IFN-γ, R4-6A2/XMG1.2. Recombinant cytokine were used as standards, with curves generated in 1:2 dilutions from […] to 39 pg/ml for IL-4, and 20-2, 156 ng/ml for IFN-γ.
Measurement of anti-OVA antibody isotypes. Mice were bled at the time of sacrifice and OVA-specific antibody was measured using a modified antigen-specific ELISA. For measurement of OVA specific IgG, plates were coated overnight with 5 μg/ml OVA. After washing and blocking, serial diluted sera were added to the plates. Following overnight incubation, the plates were developed using HRPO-conjugated goat anti-IgG subclass-specific antibodies (Southern Biotechnology Associates, Birmingham, Ala.). After additional washing, OPD substrate was added, the plates developed and the OD determined at 492 nm Anti-OVA IgG1 mAb 6C1 and anti-OVA IgG2a mAb 3A11 were used as standards for quantitation of each IgG subclass. Determination of OVA-specific IgE was performed by ELISA, using rat anti-mouse IgE mAb EM95 (5.0 μg/ml) to coat plates. After the samples were applied and incubated overnight, plates were washed and biotinylated OVA (10 μg/ml) was added. Two hours later, plates were washed and HRPO-conjugated streptavidin (Southern Biotechnology Associates) was added. Plates were developed with OPD substrate and the OD determined at 492 nm Sera from mice hyperimmunized with OVA in alum was quantitated for IgE and used as standard for the OVA-specific IgE ELISA.
as §3, §4, §5
(a) AHR was measured on day 10. C12-β-GalCer was administered i.v. (100 μg) 1 day prior to OVA/alum sensitization and 6 hours prior to each i.n. challenge (100 μg). […]

Where [6] appears, read: glycolipid alone i.p. (100 μg β Galcer or 0.1 μg α Galcer), untreated about 50 pg/ml.
[7] abbreviates: C12-β-GalCer treated group versus OVA/alum positive control.
The mark [8] stands for this setting: C12-β-GalCer treated group, four days in culture with 62.5 μg/ml OVA.

In the case of `CCCCCCCCCCCCCCCCCCCCCCCCCC(=O)N[C@@H](CO[C@H]1O[C@H](CO)[C@H](O)[C@H](O)[C@H]1O)[C@H](O)[C@H](O)CCCCCCCCCCCCCC` [α Galcer, α galactosyl ceramide, reference compound], in the data set on NKT cells [1] (0.1 μg α Galcer alone i.p., 10 days after versus before), the “rise of serum IgE level” value was “about three fold”. For the same compound, the “serum IL-4 level” value in the data set with NKT cells [2] (0.1 μg α Galcer alone i.p.) worked out at 1000 pg/mL. Further, the “increase of serum IL-4 level” value in the data set on NKT cells [2] (0.1 μg α Galcer alone i.p., versus untreated) was “about 10 fold”. The “serum IFN-γ level” value in the data set with NKT cells [2] (setting [6]) was “increased the level more than two fold”.

As to `CCCCCCCCCCCCC/C=C/[C@@H](O)[C@H](CO[C@@H]1O[C@H](CO)[C@H](O)[C@H](O)[C@H]1O)NC(=O)CCCCCCCCCCC` [β Galcer, C12 β galactosyl ceramide], the “synthesis of IgG2c (control)” value in the data set on NKT cells [1] (treatment with β-Galcer, FIG. 1D) is “not affected”. Besides, the mice without proteinuria entry with NZBxNZW mouse was “approximately 80%”. For the same compound, the AHR result in data set [3] (50 μg i.n. and i.v. 2 hours prior to 0.5 μg α-GalCer i.n., 24 hours AHR) is given as “greatly reduces 24 hours AHR”; in data set [3] (100 μg C12-β-GalCer i.v. 2 hours prior to 1.5 μg α-GalCer i.n., AHR at 24 hours), “greatly reduces AHR; also recorded: blocks α-GalCer induced AHR”; in data set [5] (C12-β-GalCer 100 μg i.v. 1 day prior to OVA/alum sensitization and 6 hours prior to each i.n. challenge, AHR day 10), “reduce AHR; also recorded: reduces OVA/alum induced AHR”. For the same compound, the “AHR induced by the agent itself” value in data set [3] (C12-β-GalCer administered i.n.) is on record as “induces mild AHR”; in data set [3] (C12-β-GalCer i.v. alone), “does not induce any AHR”. Moreover, the “peri-bronchiolar eosinophilic inflammation (histology)” value in data set [3] (C12-β-GalCer treatment) was “reduced peri-bronchiolar eosinophilic inflammation”. Also, in data set [3] (following α-GalCer induced AHR), the “serum IFN-γ” value is reported as “more serum IFN-γ”. Besides, the “lung inflammation (histology)” value in data set [3] (i.v. injection of C12-β-GalCer by itself) is on record as “does not result in any lung inflammation”. For the same compound, the “staining for NKT cell markers in the liver” value in the data set on NKT cells [4] (oral administration, FIG. 5) is “decreased staining for NKT cell markers in the liver”. Also, the “serum IL-4 level” value in the data set with NKT cells [4] (oral, 100-800 μg/mouse) is reported as “A similar pattern was observed”; in the data set on NKT cells [2] (100 μg β Galcer alone i.p., untreated about 100 pg/ml), “did not increase the level”; in the data set with NKT cells [2] (100 μg β Galcer and 0.1 μg α Galcer given at the same time), “about 250 pg/ml”. In addition, the “serum IFN-γ level” value was “no increase in serum levels at any dose” in the data set with NKT cells [4] (oral, 100-800 μg/mouse, 24 hours after administration); “below 40 pg/ml” in the data set on NKT cells [2] (100 μg β Galcer i.p. 1 hour before 0.1 μg α Galcer i.p.); “below 40 pg/ml” in the data set on NKT cells [2] (100 μg β Galcer i.p. at the same time as 0.1 μg α Galcer i.p.); “did not increase the level” with NKT cells [2] (setting [6]). Besides, the “eosinophilic infiltration of the lungs (histology)” value in data set [5] (setting [7]) is given as “reduced but present”. The “neutrophilia in the lungs (histology)” value in data set [5] (setting [7]) was “possibly more neutrophilia”. Further, the “serum OVA-specific IgE” value in data set [5] (C12-β-GalCer treated group, 100 μg i.v.) is reported as “reduced”. The “IFN-γ produced by lymph node cells” value in data set [5] (setting [8]) was “slightly more IFN-γ”. Moreover, the “IL-4 produced by lymph node cells” value in data set [5] (setting [8]) is “less IL-4”. The “increase of serum IL-4 induced by α Galcer” value in the data set with NKT cells [2] (100 μg β Galcer one hour before 0.1 μg α Galcer) is reported as “completely blocked”.
